{"source": "patent US20080182822A1", "about": "“Liquid Pharmaceutical Compositions Comprising a Bisphosphonate Compound” (Besins Healthcare SA, priority 2006, published 2008)", "details": "rat; for Feces Excretion, Amount Excreted (% of Dose), 8 hours: collection 0-8 hours; for Feces Excretion, Amount Excreted (% of Dose), 120 hours / Urinary Excretion, Amount Excreted (% of Dose), 120 hours: collection 96-120 hours; for Feces Excretion, Amount Excreted (% of Dose), 144 hours / Urinary Excretion, Amount Excreted (% of Dose), 144 hours: collection 120-144 hours; for Feces Excretion, Amount Excreted (% of Dose), 168 hours / Urinary Excretion, Amount Excreted (% of Dose), 168 hours: collection 144-168 hours", "key": {"[1]": {"details": "intravenous 0.2 mg/kg (Group 1), Mean"}, "[2]": {"details": "intravenous 0.2 mg/kg (Group 1), individual animals, 0.2 mg/kg"}, "[3]": {"details": "intravenous 0.2 mg/kg (Group 1), collection 24-48 hours, individual animals, 0.2 mg/kg"}, "[4]": {"details": "intravenous 0.2 mg/kg (Group 1), collection 48-72 hours, Mean"}, "[5]": {"details": "intravenous 0.2 mg/kg (Group 1), collection 48-72 hours, individual animals, 0.2 mg/kg"}, "[6]": {"details": "intravenous 0.2 mg/kg (Group 1), collection 72-96 hours, Mean"}, "[7]": {"details": "intravenous 0.2 mg/kg (Group 1), collection 72-96 hours, individual animals, 0.2 mg/kg"}, "[8]": {"details": "intravenous 0.2 mg/kg (Group 1), necropsy Day 4, Mean"}, "[9]": {"details": "intravenous 0.2 mg/kg (Group 1), necropsy Day 4, individual animals, 0.2 mg/kg"}, "[10]": {"details": "intravenous 0.2 mg/kg (Group 1), necropsy Day 8, Mean"}, "[11]": {"details": "intravenous 0.2 mg/kg (Group 1), necropsy Day 8, individual animals, 0.2 mg/kg"}}, "note": "Values joined by “and” are separate entries in the source; they are usually repeats but may differ in a detail not shown here. Identical values can stand only once. Like-named read-outs stand apart in the source and are kept apart here.", "data": [{"smiles": "NCCCC(O)(P(=O)(O)O)P(=O)(O)O", "note": "[14C-alendronate]", "values": [{"measurement": "Recovery from Treated Skin, % of Dose", "setting": "dermal (Group 2), necropsy Day 8, individual animals", "result": "0.25% and 0.22% (2×) and 0.33% and 0.39%"}, {"measurement": "Urinary Excretion, Total Excretion (% of Dose), 0-72 hours", "setting": "in vivo", "result": "1.16% of Dose"}, {"measurement": "Feces Excretion, Amount Excreted (% of Dose), 72 hours", "setting": "in vivo, iv, 0.2 mg/kg", "result": "1.17% of Dose"}, {"measurement": "Feces Excretion, Amount Excreted (% of Dose), 96 hours", "setting": "in vivo, iv, 0.2 mg/kg", "result": "1.17% of Dose"}, {"measurement": "Urinary Excretion, Amount Excreted (% of Dose), 24 hours", "setting": "in vivo, iv, 0.2 mg/kg", "result": "1.19% of Dose and 1.28% of Dose and 1.37% of Dose and 1.27% of Dose and 1.06% of Dose"}, {"measurement": "Urinary Excretion, Total Excretion (% of Dose), 0-72 hours", "setting": "in vivo, iv, 0.2 mg/kg", "result": "11.3% of Dose"}, {"measurement": "Feces Excretion, Total Excretion (% of Dose), 0-72 hours", "setting": "[1]", "result": "4.1% of Dose"}, {"measurement": "Urinary Excretion, Total Excretion (% of Dose), 0-72 hours", "setting": "[1]", "result": "7.3% of Dose"}, {"measurement": "Feces Excretion, Amount Excreted (% of Dose), 8 hours", "setting": "[1]", "result": "0.12% of Dose"}, {"measurement": "Feces Excretion, Amount Excreted (% of Dose), 8 hours", "setting": "[2]", "result": "0.01% of Dose and 0.02% of Dose and 0.00% of Dose (3×) and 0.67% of Dose"}, {"measurement": "Urinary Excretion, Amount Excreted (% of Dose), 24 hours", "setting": "intravenous 0.2 mg/kg (Group 1), collection 8-24 hours, Mean", "result": "1.2% of Dose"}, {"measurement": "Urinary Excretion, Amount Excreted (% of Dose), 24 hours", "setting": "intravenous 0.2 mg/kg (Group 1), collection 8-24 hours, individual animals", "result": "0.94% of Dose"}, {"measurement": "Urinary Excretion, Amount Excreted (% of Dose), 48 hours", "setting": "intravenous 0.2 mg/kg (Group 1), collection 24-48 hours, Mean", "result": "0.8% of Dose"}, {"measurement": "Feces Excretion, Amount Excreted (% of Dose), 48 hours", "setting": "[3]", "result": "0.47% of Dose and 0.92% of Dose"}, {"measurement": "Urinary Excretion, Amount Excreted (% of Dose), 48 hours", "setting": "[3]", "result": "0.78% of Dose and 0.94% of Dose and 0.75% of Dose and 0.95% of Dose and 0.34% of Dose and 0.85% of Dose"}, {"measurement": "Feces Excretion, Amount Excreted (% of Dose), 72 hours", "setting": "[4]", "result": "0.57% of Dose"}, {"measurement": "Urinary Excretion, Amount Excreted (% of Dose), 72 hours", "setting": "[4]", "result": "0.4% of Dose"}, {"measurement": "Feces Excretion, Amount Excreted (% of Dose), 72 hours", "setting": "[5]", "result": "0.15% of Dose and 0.24% of Dose and 0.44% of Dose and 0.87% of Dose"}, {"measurement": "Urinary Excretion, Amount Excreted (% of Dose), 72 hours", "setting": "[5]", "result": "0.56% of Dose and 0.34% of Dose and 0.51% of Dose and 0.61% of Dose and 0.20% of Dose and 0.26% of Dose"}, {"measurement": "Feces Excretion, Amount Excreted (% of Dose), 96 hours", "setting": "[6]", "result": "0.55% of Dose"}, {"measurement": "Urinary Excretion, Amount Excreted (% of Dose), 96 hours", "setting": "[6]", "result": "0.5% of Dose"}, {"measurement": "Feces Excretion, Amount Excreted (% of Dose), 96 hours", "setting": "[7]", "result": "0.32% of Dose and 0.14% of Dose"}, {"measurement": "Urinary Excretion, Amount Excreted (% of Dose), 96 hours", "setting": "[7]", "result": "0.74% of Dose and 0.15% of Dose and 0.57% of Dose"}, {"measurement": "Feces Excretion, Amount Excreted (% of Dose), 120 hours", "setting": "[1]", "result": "0.41% of Dose"}, {"measurement": "Urinary Excretion, Amount Excreted (% of Dose), 120 hours", "setting": "[1]", "result": "0.3% of Dose"}, {"measurement": "Feces Excretion, Amount Excreted (% of Dose), 120 hours", "setting": "[2]", "result": "0.56% of Dose and 0.12% of Dose and 0.54% of Dose"}, {"measurement": "Urinary Excretion, Amount Excreted (% of Dose), 120 hours", "setting": "[2]", "result": "0.43% of Dose and 0.11% of Dose and 0.27% of Dose"}, {"measurement": "Feces Excretion, Amount Excreted (% of Dose), 144 hours", "setting": "[1]", "result": "0.34% of Dose"}, {"measurement": "Urinary Excretion, Amount Excreted (% of Dose), 144 hours", "setting": "[1]", "result": "0.3% of Dose"}, {"measurement": "Feces Excretion, Amount Excreted (% of Dose), 144 hours", "setting": "[2]", "result": "0.36% of Dose and 0.08% of Dose and 0.59% of Dose"}, {"measurement": "Urinary Excretion, Amount Excreted (% of Dose), 144 hours", "setting": "[2]", "result": "0.59% of Dose and 0.06% of Dose and 0.31% of Dose"}, {"measurement": "Feces Excretion, Amount Excreted (% of Dose), 168 hours", "setting": "[1]", "result": "0.04% of Dose"}, {"measurement": "Urinary Excretion, Amount Excreted (% of Dose), 168 hours", "setting": "[1]", "result": "0.2% of Dose"}, {"measurement": "Feces Excretion, Amount Excreted (% of Dose), 168 hours", "setting": "[2]", "result": "0.06% of Dose and 0.02% of Dose and 0.05% of Dose"}, {"measurement": "Urinary Excretion, Amount Excreted (% of Dose), 168 hours", "setting": "[2]", "result": "0.33% of Dose and 0.18% of Dose and 0.16% of Dose"}, {"measurement": "Feces Excretion, Total Excretion (% of Dose), 0-72 hours", "setting": "[2]", "result": "3.1% of Dose and 8.6% of Dose and 2.4% of Dose and 3.2% of Dose and 2.3% of Dose and 5.0% of Dose"}, {"measurement": "Feces Excretion, Total Excretion (% of Dose), 0-168 hours", "setting": "[2]", "result": "5.6% of Dose and 3.1% of Dose and 8.2% of Dose"}, {"measurement": "Urinary Excretion, Total Excretion (% of Dose), 0-72 hours", "setting": "[2]", "result": "8.0% of Dose and 7.6% of Dose and 7.8% of Dose and 3.9% of Dose and 5.2% of Dose"}, {"measurement": "Concentration in bone, Femur", "setting": "[8]", "result": 0.500, "unit": "μg 14C-alendronate/g bone"}, {"measurement": "Concentration in bone, Tibia", "setting": "[8]", "result": 0.492, "unit": "μg 14C-alendronate/g bone"}, {"measurement": "Concentration in bone, Femur", "setting": "[9]", "result": "0.525 μg 14C-alendronate/g bone and 0.408 μg 14C-alendronate/g bone and 0.568 μg 14C-alendronate/g bone"}, {"measurement": "Concentration in bone, Tibia", "setting": "[9]", "result": "0.551 μg 14C-alendronate/g bone and 0.547 μg 14C-alendronate/g bone and 0.379 μg 14C-alendronate/g bone"}, {"measurement": "Concentration in bone, Femur", "setting": "[10]", "result": 0.679, "unit": "μg 14C-alendronate/g bone"}, {"measurement": "Concentration in bone, Tibia", "setting": "[10]", "result": 0.586, "unit": "μg 14C-alendronate/g bone"}, {"measurement": "Concentration in bone, Femur", "setting": "[11]", "result": "0.707 μg 14C-alendronate/g bone and 0.692 μg 14C-alendronate/g bone and 0.639 μg 14C-alendronate/g bone"}, {"measurement": "Concentration in bone, Tibia", "setting": "[11]", "result": "0.704 μg 14C-alendronate/g bone and 0.680 μg 14C-alendronate/g bone and 0.374 μg 14C-alendronate/g bone"}]}]}
